Assay results: PubChem BioAssay (NCI)
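Each compound was tested at five concentrations against cells in 96-well plates for 48 hours. TGI: concentration producing complete growth inhibition.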

Key:
Experiment in all cases: DTP human tumour cell line panel, 48 h
HL-60(TB) leukemia = test system: HL-60(TB) leukemia
MCF7 breast = test system: MCF7 breast
HOP-92 NSCLC = test system: HOP-92 NSCLC
HCC-2998 colon = test system: HCC-2998 colon
TK-10 renal = test system: TK-10 renal
UACC-62 melanoma = test system: UACC-62 melanoma
NCI-H460 lung = test system: NCI-H460 lung
ACHN renal = test system: ACHN renal
SK-OV-3 ovarian = test system: SK-OV-3 ovarian
RXF 393 renal = test system: RXF 393 renal
OVCAR-4 ovarian = test system: OVCAR-4 ovarian
M14 melanoma = test system: M14 melanoma
UACC-257 melanoma = test system: UACC-257 melanoma
HCT-15 colon = test system: HCT-15 colon
NCI-H23 lung = test system: NCI-H23 lung
OVCAR-8 ovarian = test system: OVCAR-8 ovarian
EKVX NSCLC = test system: EKVX NSCLC
CAKI-1 renal = test system: CAKI-1 renal
NCI-H522 lung = test system: NCI-H522 lung
IGROV1 ovarian = test system: IGROV1 ovarian
MALME-3M melanoma = test system: MALME-3M melanoma
KM12 colon = test system: KM12 colon
RPMI-8226 leukemia = test system: RPMI-8226 leukemia
786-0 renal = test system: 786-0 renal
COLO 205 colon = test system: COLO 205 colon
DU-145 prostate = test system: DU-145 prostate
SK-MEL-5 melanoma = test system: SK-MEL-5 melanoma
SW-620 colon = test system: SW-620 colon
SF-295 CNS = test system: SF-295 CNS
HCT-116 colon = test system: HCT-116 colon
SF-268 CNS = test system: SF-268 CNS
LOX IMVI melanoma = test system: LOX IMVI melanoma
SN12C renal = test system: SN12C renal
K-562 leukemia = test system: K-562 leukemia
SR leukemia = test system: SR leukemia
T-47D breast = test system: T-47D breast
HS 578T breast = test system: HS 578T breast
SNB-19 CNS = test system: SNB-19 CNS
OVCAR-5 ovarian = test system: OVCAR-5 ovarian
MDA-MB-435 = test system: MDA-MB-435
NCI-H226 lung = test system: NCI-H226 lung
PC-3 prostate = test system: PC-3 prostate
MDA-MB-231 breast = test system: MDA-MB-231 breast
NCI/ADR-RES ovarian = test system: NCI/ADR-RES ovarian
HOP-62 NSCLC = test system: HOP-62 NSCLC
SF-539 CNS = test system: SF-539 CNS
OVCAR-3 ovarian = test system: OVCAR-3 ovarian
HT29 colon = test system: HT29 colon
MDA-N = test system: MDA-N
SK-MEL-28 melanoma = test system: SK-MEL-28 melanoma
CCRF-CEM leukemia = test system: CCRF-CEM leukemia
MOLT-4 leukemia = test system: MOLT-4 leukemia
A549 NSCLC = test system: A549 NSCLC
UO-31 renal = test system: UO-31 renal
U251 CNS = test system: U251 CNS
SNB-75 CNS = test system: SNB-75 CNS
SK-MEL-2 melanoma = test system: SK-MEL-2 melanoma
A498 renal = test system: A498 renal

`Cc1coc2c1[C@@H](O)[C@@]1(C)[C@H](CCC[C@@H]1C)C2` gave a TGI (HL-60(TB) leukemia) of 62 µM, a TGI (MCF7 breast) greater than 100 µM and a TGI (HOP-92 NSCLC) greater than 100 µM. For the same compound, the TGI (HCC-2998 colon) was greater than 100 µM, the TGI (TK-10 renal) was greater than 100 µM and the TGI (UACC-62 melanoma) was greater than 100 µM. It also gave a TGI (NCI-H460 lung) greater than 100 µM, a TGI (ACHN renal) greater than 100 µM and a TGI (SK-OV-3 ovarian) greater than 100 µM. For the same compound, the TGI (RXF 393 renal) was 55 µM, the TGI (OVCAR-4 ovarian) was greater than 100 µM and the TGI (M14 melanoma) was 43.9 µM. It also gave a TGI (UACC-257 melanoma) of 84.3 µM, a TGI (HCT-15 colon) greater than 100 µM and a TGI (NCI-H23 lung) greater than 100 µM. It also gave a TGI (OVCAR-8 ovarian) of 47.8 µM, a TGI (EKVX NSCLC) greater than 100 µM and a TGI (CAKI-1 renal) greater than 100 µM. The TGI (NCI-H522 lung) was 73.5 µM, the TGI (IGROV1 ovarian) was greater than 100 µM and the TGI (MALME-3M melanoma) was 99 µM. The TGI (KM12 colon) was greater than 100 µM, the TGI (RPMI-8226 leukemia) was 90.6 µM and the TGI (786-0 renal) was greater than 100 µM. The TGI (COLO 205 colon) was 60.1 µM, the TGI (DU-145 prostate) was greater than 100 µM and the TGI (SK-MEL-5 melanoma) was 77.5 µM. The TGI (SW-620 colon) was greater than 100 µM, the TGI (SF-295 CNS) was greater than 100 µM and the TGI (HCT-116 colon) was greater than 100 µM. For the same compound, the TGI (SF-268 CNS) was greater than 100 µM, the TGI (LOX IMVI melanoma) was greater than 100 µM and the TGI (SN12C renal) was 75.7 µM. It also gave a TGI (K-562 leukemia) of 74.7 µM, a TGI (SR leukemia) greater than 100 µM and a TGI (T-47D breast) greater than 100 µM. For the same compound, the TGI (HS 578T breast) was greater than 100 µM, the TGI (SNB-19 CNS) was greater than 100 µM and the TGI (OVCAR-5 ovarian) was greater than 100 µM. It also gave a TGI (MDA-MB-435) of 38.1 µM, a TGI (NCI-H226 lung) of 76.3 µM and a TGI (PC-3 prostate) greater than 100 µM. It also gave a TGI (MDA-MB-231 breast) of 59.3 µM, a TGI (NCI/ADR-RES ovarian) of 54.5 µM and a TGI (HOP-62 NSCLC) of 93.2 µM. The TGI (SF-539 CNS) was 47 µM, the TGI (OVCAR-3 ovarian) was 64.8 µM and the TGI (HT29 colon) was greater than 100 µM. The TGI (MDA-N) was 64.1 µM, the TGI (SK-MEL-28 melanoma) was greater than 100 µM and the TGI (CCRF-CEM leukemia) was greater than 100 µM. The TGI (MOLT-4 leukemia) was 89.4 µM.

`O=c1ssc2ncccc12` was tested, and the TGI (HL-60(TB) leukemia) was greater than 100 µM, the TGI (MCF7 breast) was 33 µM and the TGI (HOP-92 NSCLC) was greater than 100 µM. The TGI (A549 NSCLC) was 39.7 µM, the TGI (HCC-2998 colon) was 39.3 µM and the TGI (TK-10 renal) was greater than 100 µM. The TGI (UACC-62 melanoma) was 24 µM, the TGI (NCI-H460 lung) was 52.3 µM and the TGI (ACHN renal) was 31.9 µM. It also gave a TGI (SK-OV-3 ovarian) greater than 100 µM, a TGI (RXF 393 renal) of 37.4 µM and a TGI (M14 melanoma) of 41.8 µM. For the same compound, the TGI (UACC-257 melanoma) was 50.4 µM, the TGI (HCT-15 colon) was 27.4 µM and the TGI (UO-31 renal) was 32 µM. It also gave a TGI (NCI-H23 lung) greater than 100 µM, a TGI (EKVX NSCLC) greater than 100 µM and a TGI (CAKI-1 renal) greater than 100 µM. It also gave a TGI (NCI-H522 lung) of 28.9 µM, a TGI (U251 CNS) of 33.1 µM and a TGI (MALME-3M melanoma) of 50.2 µM. The TGI (KM12 colon) was 48 µM, the TGI (RPMI-8226 leukemia) was 40.5 µM and the TGI (786-0 renal) was 38.2 µM. It also gave a TGI (COLO 205 colon) of 34.8 µM, a TGI (DU-145 prostate) greater than 100 µM and a TGI (SK-MEL-5 melanoma) of 25.9 µM. The TGI (SW-620 colon) was 43.6 µM, the TGI (SF-295 CNS) was greater than 100 µM and the TGI (HCT-116 colon) was 40.1 µM. It also gave a TGI (SF-268 CNS) of 69.6 µM, a TGI (LOX IMVI melanoma) of 35 µM and a TGI (SN12C renal) of 28.8 µM. The TGI (K-562 leukemia) was greater than 100 µM, the TGI (SR leukemia) was greater than 100 µM and the TGI (T-47D breast) was greater than 100 µM. It also gave a TGI (HS 578T breast) greater than 100 µM, a TGI (SNB-19 CNS) greater than 100 µM and a TGI (OVCAR-5 ovarian) of 55.1 µM. It also gave a TGI (MDA-MB-435) of 31.5 µM, a TGI (NCI-H226 lung) of 7.65 µM and a TGI (PC-3 prostate) greater than 100 µM. It also gave a TGI (MDA-MB-231 breast) of 26.2 µM, a TGI (SNB-75 CNS) of 34.9 µM and a TGI (NCI/ADR-RES ovarian) greater than 100 µM. For the same compound, the TGI (HOP-62 NSCLC) was 45.5 µM, the TGI (SF-539 CNS) was 70.5 µM and the TGI (OVCAR-3 ovarian) was 35.6 µM. For the same compound, the TGI (HT29 colon) was 53.6 µM, the TGI (SK-MEL-2 melanoma) was 27.8 µM and the TGI (MDA-N) was 34.9 µM. The TGI (SK-MEL-28 melanoma) was 42.5 µM, the TGI (CCRF-CEM leukemia) was greater than 100 µM and the TGI (A498 renal) was greater than 100 µM. For the same compound, the TGI (MOLT-4 leukemia) was greater than 100 µM.

For `CC1=NN(c2cccc(Cl)c2)C2(SCC(=O)N2c2nc3ccccc3s2)/C1=C\c1ccccc1` (centres undefined), the TGI (HL-60(TB) leukemia) was 67.7 µM, the TGI (MCF7 breast) was 84.3 µM and the TGI (HOP-92 NSCLC) was 25.6 µM. For the same compound, the TGI (HCC-2998 colon) was 29.3 µM, the TGI (TK-10 renal) was greater than 100 µM and the TGI (NCI-H460 lung) was 32.4 µM. It also gave a TGI (ACHN renal) of 48.4 µM, a TGI (SK-OV-3 ovarian) of 55.1 µM and a TGI (RXF 393 renal) of 40.6 µM. For the same compound, the TGI (OVCAR-4 ovarian) was 62.7 µM, the TGI (M14 melanoma) was 70.1 µM and the TGI (UACC-257 melanoma) was 85.2 µM. It also gave a TGI (HCT-15 colon) of 37.4 µM, a TGI (UO-31 renal) of 63.6 µM and a TGI (NCI-H23 lung) of 51.9 µM. For the same compound, the TGI (OVCAR-8 ovarian) was 45.7 µM, the TGI (EKVX NSCLC) was greater than 100 µM and the TGI (CAKI-1 renal) was 53 µM. It also gave a TGI (NCI-H522 lung) of 34.6 µM, a TGI (U251 CNS) of 44.3 µM and a TGI (IGROV1 ovarian) of 58.7 µM. It also gave a TGI (KM12 colon) of 32.2 µM, a TGI (RPMI-8226 leukemia) of 46.8 µM and a TGI (786-0 renal) of 31 µM. The TGI (DU-145 prostate) was 45.3 µM, the TGI (SK-MEL-5 melanoma) was 30.3 µM and the TGI (SW-620 colon) was 37.3 µM. The TGI (SF-295 CNS) was 81.2 µM, the TGI (HCT-116 colon) was 29.4 µM and the TGI (SF-268 CNS) was 54.4 µM. The TGI (LOX IMVI melanoma) was 66.6 µM, the TGI (K-562 leukemia) was 54.4 µM and the TGI (SR leukemia) was 63.3 µM. It also gave a TGI (T-47D breast) greater than 100 µM, a TGI (HS 578T breast) of 55.4 µM and a TGI (OVCAR-5 ovarian) of 58.8 µM. It also gave a TGI (MDA-MB-435) of 38.9 µM, a TGI (NCI-H226 lung) of 97.4 µM and a TGI (PC-3 prostate) of 64.2 µM. It also gave a TGI (MDA-MB-231 breast) of 55.5 µM, a TGI (SNB-75 CNS) greater than 100 µM and a TGI (NCI/ADR-RES ovarian) of 83.3 µM. The TGI (HOP-62 NSCLC) was 56.7 µM, the TGI (SF-539 CNS) was greater than 100 µM and the TGI (OVCAR-3 ovarian) was greater than 100 µM. The TGI (HT29 colon) was 44.8 µM, the TGI (SK-MEL-2 melanoma) was 46.7 µM and the TGI (MDA-N) was 42.3 µM. It also gave a TGI (SK-MEL-28 melanoma) greater than 100 µM, a TGI (CCRF-CEM leukemia) greater than 100 µM and a TGI (A498 renal) of 51.8 µM. For the same compound, the TGI (MOLT-4 leukemia) was 60.2 µM.
